Counter-ions that a name gives are not always drawn.
Key:
[1] = LD50/24 h by the method of Miller & Tainter, intravenous route, mice; conditions: mouse, in vivo, read-out: LD50 /24 h/kg of body weight
[2] = Triton test (hypocholesterolemic action); assay type: in vivo, rat; conditions: for reduction of free cholesterol and of total cholesterol: 100 mg/kg oral, rat, 18 hours after Triton; for reduction of free cholesterol and total cholesterol levels: 50 mg/kg oral
Experimental: The intravenous injection of Triton W-R 1339 (an alkylaryl polyetheralcohol sold by Rohm and Haas) enables one to artifically increase, in the rat, certain lipidic fractions of serum and thus to evalute the hypocholesterolemic action of the compounds of the invention. […]
Eighteen hours later a blood sample is taken and the β-lipoproteins, the free cholesterol and the cholesterol are determined.
This test, which enables one to evaluate the hypocholesterolemic action of the derivatives to be tested, on serum levels of certain lipid fractions, has shown the remarkable effect of the compounds according to the invention.

[3] = Propyl-thiouracil test (hypocholesterolemic action); assay type: in vivo, rats
Experimental: a. Propyl-thiouracil test (RANNEY et Coll. J. Pharmacol. Exper. Therap. 1963, 142, 132-136)
The administration of propyl-thiouracil to adult rats renders them hypercholesterolemic; in effect, the plasmatic cholesterol rate has increased by about 15%. The testing is carried out on two groups of rats, the control group receiving the propyl-thiouracil only whilst the treated group also receives 100 mg/kg of the compounds to be tested, by the oral route.
On the 11th day of the experiment, the blood samples are taken and the β-lipoproteins, the free cholesterol and the total cholesterol measured.
a. Propyl-thiouracil test (Ranney et Coll. J. Pharmacol. Exper. Therap. 1963, 142, 132-136)
This test has shown the clearly favourable action of the derivatives according to the invention, at a dose of […].

[4] = LD50/24 hours by the method of Miller & Tainter, intravenous route (derivatives 34 to 38, species not restated); conditions: in vivo, read-out: LD50 /24 hours /kg of body weight
ovalbumin-induced oedema = test: Generalised ovalbumin-induced oedema method (anti-inflammatory action); assay type: in vivo, rats; conditions: 50 mg/kg oral
Experimental: b. Generalised ovalbumin-induced oedema method
A simultaneous intraperitoneal injection of 1 ml of ovalbumin and of 0.5 ml of an aqueous solution of Evans Blue at 1 ml per thousand by weight is administered to rats.
For comparative purposes, 100 mg of the compound to be tested is administered orally to the animals of the group to be treated, 1 hour before and at the same time as the ovalbumin. The intensity of the phenomenon thus provoked in noted by a FIG. 1 to 5 according to the intensity of the inflammatory syndrome.
Thus one determines the average of the oedematic intensity and the percentage of decrease of the oedematic reaction in relation to the control animals.
b. method of generalised ovalbumin-induced oedema
The percentages of reduction of oedematic reaction, in the test animals, in subjects treated by the oral route by the administration of […] of the compound to be tested show the clear anti-inflammatory action of the compounds according to the invention.

[5] = test system: carrageenin-induced oedema; test: Localised carrageenin-induced oedema method (anti-inflammatory action); assay type: in vivo, rat; conditions: 50 mg/kg oral
Experimental: a. Localised carrageenin-induced oedema method
A 1% solution of carrageenin (0.1 ml) is injected into the metatarsal flexor muscles of the right hand rear paw of the rat at time "0".
The animals of the treated group also receive, by the oral route, 100 mg/kg of the compound to be tested, respectively 1 hour before and at the same time as the injection of the phlogogenic agent, then 1 hour and 21/2 hours after. The measurements made with the aid of a micrometer at the time "0" and 1 hour, 2 hours, 3 hours and 5 hours after the administration of the carrageenin, enable one to determine, in relation to time, the percentage of anti-inflammatory activity in relation to the control group.
a. method of localised carrageenin-induced oedema
The oral administration of […] of the derivatives to be tested produces a clear reduction of the inflammatory reaction provoked.

[6] = 100 mg/kg oral, rats, 11th day, control 0.20 g/l
[7] = 100 mg/kg oral, rats, 11th day, control 0.86 g/l

Structure (SMILES)	LD50 at 24 h [1] [mg/kg]	reduction of free cholesterol and of total cholesterol [2] [%]	Free cholesterol [3, 6] [g/L]	Total cholesterol [3, 7] [g/L]	reduction of free cholesterol and total cholesterol levels [2] [%]	LD50 at 24 h [4] [mg/kg]	percentage of reduction of oedematic reaction, 1st hour (ovalbumin-induced oedema) [%]	percentage of reduction of oedematic reaction, 2nd hour (ovalbumin-induced oedema) [%]	reduction of the inflammatory reaction, 1st hour [5]	reduction of the inflammatory reaction, 2nd hour [5]	reduction of the inflammatory reaction, 3rd hour [5]	reduction of the inflammatory reaction, 4th hour [5]	reduction of the inflammatory reaction, 5th hour [5]	Free cholesterol ([3]; 50 mg/kg, control 0.25)	Total cholesterol ([3]; 50 mg/kg, control 0.89)
CCN(CC)CC=C1CN=C(NC2CCCCC2)S1 [Derivative No. 1, 2-cyclohexylamino 5-β-diethylaminoethylidene Δ^2-thiazoline]	42	~28	0.14	0.60											
CCN(CC)CC=C1CN=C(N2CCN(C)CC2)S1 [Derivative No. 12, 5-(2-diethylaminoethylidene) 2-(4-methyl 1-piperazinyl) Δ^2-thiazoline tetrahydrochloride]	90	~26	0.15	0.61											
CCN(CC)CC=C1CN=C(N2CCOCC2)S1 [Derivative No. 14, 5-β-diethylaminoethylidene 2-morpholino Δ^2-thiazoline oxalate]	105														
CCN(CC)CC=C1CN=C(NC(C)(C)CC(C)(C)C)S1 [Derivative No. 18, 5-(β-diethylaminoethylidene) 2-(1,1,3,3-tetramethyl-butyl-amino) Δ^2-thiazoline]	45														
CCN(CC)CC=C1CN=C(NC)S1 [Derivative No. 21, 5-(β-diethylaminoethylidene) 2-methylamino Δ^2-thiazoline oxalate]	92														
C(CN1CCN(c2ccccc2)CC1)=C1CN=C(NC2CCCCC2)S1 [Derivative No. 35, 2-cyclohexylamino 5-[4-β-(phenyl)piperazinoethylidene] Δ^2-thiazoline]					~29	48	62	65	45	46	55	57	58	0.11	0.61
FC(F)(F)c1cccc(N2CCN(CC=C3CN=C(NC4CCCCC4)S3)CC2)c1 [Derivative No. 36]					~27	65	55	61	46	50	59	61	62	0.13	0.63
Clc1ccccc1N1CCN(CC=C2CN=C(NC3CCCCC3)S2)CC1 [Derivative No. 37, 5-[4-β-(orthochlorophenyl)piperazinoethylidene]2-cyclohexylamino Δ^2-thiazoline]					~41	57	60	68	38	43	48	52	57	0.10	0.60
COc1ccc(N2CCN(CC=C3CN=C(NC4CCCCC4)S3)CC2)cc1 [Derivative No. 38, 2-cyclohexylamino 5-[4-β-(paramethoxyphenyl)piperazinoethylidene] Δ^2-thiazoline]					~44	52	64	70	49	53	56	60	61	0.09 g/L	0.58

— patent US4018786A, “2-Aminothiazolines and a process for preparation thereof” (Centre d'Etudes pour l'Industrie Pharmaceutique, priority 1974, dated 1977)
